This is an account of results in patent US20230167073A1 (Teijin Pharma Limited, priority 2020, published 2023).

This assay deals with T1, Human TRPC6 (Homo sapiens, UniProt Q9Y210).
T1 construct: expressed in transfected cells
T1 sequence (Q9Y210 1-931): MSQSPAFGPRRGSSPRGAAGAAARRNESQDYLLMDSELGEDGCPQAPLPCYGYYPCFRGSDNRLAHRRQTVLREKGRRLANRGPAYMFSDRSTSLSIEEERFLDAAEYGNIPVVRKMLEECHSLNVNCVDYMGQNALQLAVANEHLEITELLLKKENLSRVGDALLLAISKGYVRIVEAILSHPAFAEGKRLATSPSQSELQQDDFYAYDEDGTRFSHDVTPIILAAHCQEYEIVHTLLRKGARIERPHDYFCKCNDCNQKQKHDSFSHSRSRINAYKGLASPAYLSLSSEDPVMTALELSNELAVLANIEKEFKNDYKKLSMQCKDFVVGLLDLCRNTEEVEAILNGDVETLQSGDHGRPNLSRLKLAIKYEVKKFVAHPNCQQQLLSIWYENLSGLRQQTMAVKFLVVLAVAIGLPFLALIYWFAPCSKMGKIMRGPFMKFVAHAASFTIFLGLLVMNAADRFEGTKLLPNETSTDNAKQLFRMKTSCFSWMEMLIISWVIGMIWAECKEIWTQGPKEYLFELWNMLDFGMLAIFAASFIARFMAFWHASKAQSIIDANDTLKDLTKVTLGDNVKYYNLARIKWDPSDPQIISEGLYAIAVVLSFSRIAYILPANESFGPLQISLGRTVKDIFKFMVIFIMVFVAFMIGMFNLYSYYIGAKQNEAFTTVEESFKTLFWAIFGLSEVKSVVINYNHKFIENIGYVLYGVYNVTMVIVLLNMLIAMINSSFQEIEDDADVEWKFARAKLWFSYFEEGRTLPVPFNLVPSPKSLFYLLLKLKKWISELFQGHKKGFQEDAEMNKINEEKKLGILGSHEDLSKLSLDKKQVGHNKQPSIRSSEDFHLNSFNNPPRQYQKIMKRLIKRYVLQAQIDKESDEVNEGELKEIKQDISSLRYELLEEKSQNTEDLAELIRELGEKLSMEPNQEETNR
The assay can be described thus: Evaluation of TRPC6 channel inhibitory activity (1), FLIPR Calcium 5 Assay Kit, OAG stimulation (Compound Nos. 1-1293). It counts as cell-based. The conditions noted are these: Human TRPC6 stably-expressing cells, OAG 30 μM, FLIPR Calcium 5 Assay Kit; read-out: Inhibitory activity (pIC50 class) (converted). The method, boiled down: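 Readout is pIC50 from four-parameter logistic fitting of inhibition of the OAG-evoked (30 μM final) fluorescence calcium signal. Human TRPC6 stable cells are dye-loaded with probenecid, and compound is applied 20 min ahead of agonist.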

Regarding `Cn1nc(C2CC2)cc1Oc1cc(C#N)ccc1-c1ccc([C@H](O)CN)cn1` [compound 375, 4-[5-[(1S)-2-amino-1-hydroxyethyl]pyridin-2-yl]-3-(5-cyclopropyl-2-methylpyrazol-3-yl)oxybenzonitrile], the IC50 is under 10 nM.
In the case of `Cn1nc(C(F)(F)C(F)(F)F)cc1Oc1cc(C#N)ccc1-c1ncc(CCN)cn1` [compound 376, 4-[5-(2-aminoethyl)pyrimidin-2-yl]-3-[2-methyl-5-(1,1,2,2,2-pentafluoroethyl)pyrazol-3-yl]oxybenzonitrile], the IC50 is under 10 nM.
The result for `Cn1nc(-c2ccc(Cl)cc2)cc1Oc1cc(C#N)ccc1-c1ccc([C@@H](O)CN)cn1` [compound 377, 4-[5-[(1R)-2-amino-1-hydroxyethyl]pyridin-2-yl]-3-[5-(4-chlorophenyl)-2-methylpyrazol-3-yl]oxybenzonitrile] reads 10 to 1000 nM; that for `Cc1ccccc1-c1cc(Oc2cc(C#N)ccc2-c2ccc([C@@H](O)CN)cn2)n(C)n1` [compound 378, 4-[5-[(1R)-2-amino-1-hydroxyethyl]pyridin-2-yl]-3-[2-methyl-5-(2-methylphenyl)pyrazol-3-yl]oxybenzonitrile], under 10 nM.
The result for `N#Cc1ccc(-c2ncc(CCN)cn2)c(Oc2cc(C3CC3)nn2CC(F)(F)F)c1` [compound 379, 4-[5-(2-aminoethyl)pyrimidin-2-yl]-3-[5-cyclopropyl-2-(2,2,2-trifluoroethyl)pyrazol-3-yl]oxybenzonitrile] reads under 10 nM.
Turning to `CC(C)n1nc(C2CC2)cc1Oc1cc(C#N)ccc1-c1ncc(CCN)cn1` [compound 380, 4-[5-(2-aminoethyl)pyrimidin-2-yl]-3-(5-cyclopropyl-2-propan-2-ylpyrazol-3-yl)oxybenzonitrile], the IC50 is 10 to 1000 nM.
In the case of `CC(C)n1nc(-c2ccccc2)cc1Oc1cc(C#N)ccc1-c1ncc(CCN)cn1` [compound 381, 4-[5-(2-aminoethyl)pyrimidin-2-yl]-3-(5-phenyl-2-propan-2-ylpyrazol-3-yl)oxybenzonitrile], the IC50 was under 10 nM.
For `CC(C)n1nc(C2CC2)cc1Oc1cc(C#N)ccc1-c1ccc([C@@H](O)CN)cn1` [compound 382, 4-[5-[(1R)-2-amino-1-hydroxyethyl]pyridin-2-yl]-3-(5-cyclopropyl-2-propan-2-ylpyrazol-3-yl)oxybenzonitrile], the IC50 is under 10 nM.
Regarding `CC(C)n1nc(-c2ccccc2)cc1Oc1cc(C#N)ccc1-c1ccc([C@@H](O)CN)cn1` [compound 383, 4-[5-[(1R)-2-amino-1-hydroxyethyl]pyridin-2-yl]-3-(5-phenyl-2-propan-2-ylpyrazol-3-yl)oxybenzonitrile], the IC50 is under 10 nM.
On to `Cn1nc(C(F)F)cc1Oc1cc(C#N)ccc1-c1ncc(CCN)cn1` [compound 384, 4-[5-(2-aminoethyl)pyrimidin-2-yl]-3-[5-(difluoromethyl)-2-methylpyrazol-3-yl]oxybenzonitrile], for which the IC50 was under 10 nM.
`Cn1nc(C2CC2)cc1Oc1cc(C#N)ccc1-c1ncc(OCCN)cn1` [compound 385, 4-[5-(2-aminoethoxy)pyrimidin-2-yl]-3-(5-cyclopropyl-2-methylpyrazol-3-yl)oxybenzonitrile]: the IC50 was 10 to 1000 nM.
The result for `CCc1cc(Oc2cc(C#N)ccc2-c2ncc(OCCN)cn2)n(C)n1` [compound 386, 4-[5-(2-aminoethoxy)pyrimidin-2-yl]-3-(5-ethyl-2-methylpyrazol-3-yl)oxybenzonitrile] reads 10 to 1000 nM; that for `Cc1cc(Oc2cc(C#N)ccc2-c2ncc(OCCN)cn2)cc(N2CCOCC2)n1` [compound 387, 4-[5-(2-aminoethoxy)pyrimidin-2-yl]-3-(2-methyl-6-morpholin-4-ylpyridin-4-yl)oxybenzonitrile], 10 to 1000 nM; that for `Cc1cc(Oc2cc(C#N)ccc2-c2cnc(CCN)cn2)cc(N2CCOCC2)n1` [compound 388, 4-[5-(2-aminoethyl)pyrazin-2-yl]-3-(2-methyl-6-morpholin-4-ylpyridin-4-yl)oxybenzonitrile], under 10 nM.
In the case of `Cn1nc(C2CCOCC2)cc1Oc1cc(C#N)ccc1-c1cnc(CCN)cn1` [compound 389, 4-[5-(2-aminoethyl)pyrazin-2-yl]-3-[2-methyl-5-(oxan-4-yl)pyrazol-3-yl]oxybenzonitrile], the IC50 is 10 to 1000 nM.
The result for `Cn1nc(-c2nccs2)cc1Oc1cc(C#N)ccc1-c1ccc(CCN)cn1` [compound 390, 4-[5-(2-aminoethyl)pyridin-2-yl]-3-[2-methyl-5-(1,3-thiazol-2-yl)pyrazol-3-yl]oxybenzonitrile] reads under 10 nM; that for `Cn1nc(-c2nccs2)cc1Oc1cc(C#N)ccc1-c1ncc(CCN)cn1` [compound 391, 4-[5-(2-aminoethyl)pyrimidin-2-yl]-3-[2-methyl-5-(1,3-thiazol-2-yl)pyrazol-3-yl]oxybenzonitrile], under 10 nM.
The result for `Cn1nc(C2CCCC2)cc1Oc1cc(C#N)ccc1-c1ccc([C@H](O)CN)cn1` [compound 392, 4-[5-[(1S)-2-amino-1-hydroxyethyl]pyridin-2-yl]-3-(5-cyclopentyl-2-methylpyrazol-3-yl)oxybenzonitrile] reads under 10 nM; that for `Cn1nc(C2CCCC2)cc1Oc1cc(C#N)ccc1-c1ncc(CCN)cn1` [compound 393, 4-[5-(2-aminoethyl)pyrimidin-2-yl]-3-(5-cyclopentyl-2-methylpyrazol-3-yl)oxybenzonitrile], under 10 nM.
The figure for `Cn1nc(-c2ccccn2)cc1Oc1cc(C#N)ccc1-c1ncc(CN)cn1` [compound 394, 4-[5-(aminomethyl)pyrimidin-2-yl]-3-(2-methyl-5-pyridin-2-ylpyrazol-3-yl)oxybenzonitrile] is under 10 nM; for `Cn1nc(-c2ccccn2)cc1Oc1cc(C#N)ccc1-c1ccc(C(C)(C)N)cn1` [compound 395, 4-[5-(2-aminopropan-2-yl)pyridin-2-yl]-3-(2-methyl-5-pyridin-2-ylpyrazol-3-yl)oxybenzonitrile] it is 10 to 1000 nM.
Turning to `CC(N)c1ccc(-c2ccc(C#N)cc2Oc2cc(-c3ccccn3)nn2C)nc1` (centres unmarked) [compound 396, 4-[5-(1-aminoethyl)pyridin-2-yl]-3-(2-methyl-5-pyridin-2-ylpyrazol-3-yl)oxybenzonitrile], the IC50 is under 10 nM.
`Cc1cc(Oc2cc(C#N)ccc2-c2ccc(C(C)(C)N)cn2)cc(N2CCOCC2)n1` [compound 397, 4-[5-(2-aminopropan-2-yl)pyridin-2-yl]-3-(2-methyl-6-morpholin-4-ylpyridin-4-yl)oxybenzonitrile]: the IC50 is 10 to 1000 nM.
The figure for `Cc1cc(Oc2cc(C#N)ccc2-c2ccc(C(C)N)cn2)cc(N2CCOCC2)n1` (centres unmarked) [compound 398, 4-[5-(1-aminoethyl)pyridin-2-yl]-3-(2-methyl-6-morpholin-4-ylpyridin-4-yl)oxybenzonitrile] is under 10 nM.
In the case of `CCOc1cc(Oc2cc(C#N)ccc2-c2ccc([C@H](O)CN)cn2)n(C)n1` [compound 399, 4-[5-[(1S)-2-amino-1-hydroxyethyl]pyridin-2-yl]-3-(5-ethoxy-2-methylpyrazol-3-yl)oxybenzonitrile], the IC50 was under 10 nM.
The result for `Cn1nc(C2CC2)cc1Oc1cc(C#N)ccc1-c1ccc(C(C)(C)N)cn1` [compound 400, 4-[5-(2-aminopropan-2-yl)pyridin-2-yl]-3-(5-cyclopropyl-2-methylpyrazol-3-yl)oxybenzonitrile] reads 10 to 1000 nM.
